What was measured:
CYP 3A4 mRNA = assay: CYP3A4 Induction Assay (qPCR, human hepatocytes); assay type: in vitro ADME; settings: 10 μM compound, relative to rifampicin 10 μM
Method: (§1) CYP induction by compounds of the Examples was evaluated in vitro by determining the expression levels of CYP 3A4 mRNA using the qPCR (quantitative polymerase chain reaction) assay. On day one, cryopreserved human hepatocytes were thawed in prewarmed (37° C.) thawing medium (cryopreserved hepatocyte recovery medium, Gibco™ CM 7000; Thermo Fisher Scientific), centrifuged (1000 g for 10 minutes) and resuspended in plating medium (Gibco™ CM3000—Williams Medium E supplemented with hepatocytes plating supplement pak-serum containing; Thermo Fisher Scientific). Cells were counted by trypan blue exclusion using a hemocytometer and adjusted to a cell density of […]. Thereafter, […] of cell suspension was aliquoted per well in a 96-well plate, resulting in 60,000 cells/well. Plates were shaken in the north-south and east-west direction during plating. Plated cells were incubated at 37° C/5% CO2 in a humidified cell culture incubator for 4-6 hours. During this time, incubation medium (Gibco™ CM4000, cell maintenance supplement pack; Thermo Fisher Scientific) was mixed with Gibco™ Geltrex™ (Thermo Fischer Scientific) at the appropriate GeltrexTM protein concentration. Following recovery, medium was removed from cells and replaced with freshly prepared incubation medium. Cells were incubated overnight in a cell culture incubator (37° C./5% CO2).
(§2) The next day the incubation medium was prepared by combining the hepatocyte maintenance supplement pack with Williams Medium E. The medium was warmed to 37° C. 1000× dimethyl sulfoxide compound stocks of the compounds of the Examples were prepared to the desired concentrations. 10 mM compound stocks in dimethyl sulfoxide were diluted (1 μL to 1 mL CM4000; final concentration=10 μM). Overlay medium was aspirated and […] dose solution added to the desired labeled 96 well plate. Cells were then dosed with compound (10 μM) and prototypical induces at the targeted concentrations either 50 i.tM for omeprazole (Sigma 0104/lotBCBF-2161V) or 10 i.tM for rifampicin (Sigma R3501/lot 011M1159V). A negative control, probenecid, was dosed at 10 i.tM (Sigma P8761/lot 013K0148).
(§3) On day 3, RNA isolation was performed. All surfaces were cleaned using RNase RNAy. Total RNA was isolated using MagMAX Express 96 RNA Isolation System (Life Technologies, AM1830). Briefly, hepatocytes were washed once with 1X PBS (phosphate buffered saline). 145 μL of RNA Lysis Buffer was added to each well and each well was mixed by pipetting several times. Lysate was then transferred to a well of a 96 well Binding Plate. Samples were then mixed with 20 μL magnetic beads coming from the kit. RNA bound to beads was then captured by the magnetic tip manifold and beads were washed with the wash solution. Samples were treated with TURBOTmDNase. After TURBOTmDNase treatment, RNA was rebound to beads and washed with the provided wash buffer an additional two times. Beads are then dried, and RNA was eluted with 50 μL elution buffer. The eluted mRNA was transferred from the wells to RNase-free sealable microtiter plates and stored at -80° C. until use.
(§4) Following mRNA isolation, reverse transcription (RT) reactions were performed using TaqmanTm Reverse Transcription Reagents (ThermoFisher Scientific). RT master mix was prepared by mixing 2.5 μL 10× RT buffer, 5.5 μL 25 mM MgCl2, 5μL deoxyNTP mixture, 1.25 50 mM random hexamers, 0.5 μL 2× RNAse inhibitor, 0.625 μL multiscript RTase (50U/μL) and 0.625 μL water. An aliquot of RT mix (16 μL) and an aliquot of mRNA sample (9 μL) was added to each well of a 96-well plate. The SimpliAmpTM Thermal cycler PCR System VIIA7 from Applied Biosystems was used for reverse transcription under the following conditions: segment 1: 25° C. for 10 minutes; segment 2: 45° C. for 45 minutes; segment 3: 95° C. for 5 minutes; and segment 4: 4° C. hold; with 1 cycle for each segment. […]

CYP3A4 mRNA = assay: CYP3A4 Induction Assay (qPCR, human hepatocytes); assay type: in vitro ADME; settings: cryopreserved human hepatocytes (plated), 10 μM compound, mRNA fold over vehicle (0.1% DMSO)
Method: as §1, §2, §3, §4

OCI-LY3 IL6 = assay: MALT-1 Cell IL-6 AlphaLISA Assay; assay type: cell-based; settings: Homo sapiens; OCI-LY3 cells, 48 hours incubation; read-out: OCI-LY3 IL6 48 hour Inhibition EC50
Method: The following MALT-1 Cell Interleukin-6 (IL-6) AlphaLISA assay was conducted using a Perkin Elmer® IL-6 AlphaLISA® detection kit (PE AL223). The IL-6 detection assay is a homogeneous immunoassay that detects human IL-6 present in the cell culture medium in the MALT-1 dependent human ABC-DLBCL cell line, OCI-LY3. Compounds were pre-dispensed into Black 384w microtiter plates (Greiner, 781090) from 30 μM to 1.5 nM. Viable OCI-LY3 cells were then seeded on top of compounds at a seeding density of 50,000 cells/mL. Plates were then placed into 37° C. incubators for 48 hours. After 48 hours incubation, 2 μL of cell medium from each well was transferred into white ProxiPlates™ (PE 6008289). A fresh mix of AlphaLISA Acceptor beads (10 μg/mL) and Biotinylated IL-6 Antibody (1 nM) was made in AlphaLISA Immunoassay buffer and added to all wells (4 μL). The plates were incubated for 60 minutes at room temperature. Streptavidin donor beads (40 μg/mL) were prepared using the assay buffer and added to all wells (5 The plates were incubated for 30 minutes at room temperature and read using PE EnVision® reader. Results are shown in Table 3.

human MALT-1 protein = human MALT-1 protein (Homo sapiens (Human), UniProt Q9UDY8); assay: MALT-1 Biochemical Assay (Quench-FRET enzyme assay); settings: human MALT-1 6 nM, substrate 2 μM, 40 min preincubation
Text: A Quenched Fluorescence Resonance Energy Transfer (Quench-FRET) enzyme assay was used to test the ability of exemplary MALT-1 inhibitors Example 1 to Example 39 to inhibit the cleavage of a MALT1 specific quenched fluorescent substrate of sequence [TAMRA-PEG2-Leu-Val-Ser-Arg-Gly-Ala-Ala-Ser-PEG2-K(QSY7) by human MALT-1 protein; where TAMRA is 6-carboxytetramethylrhodamine, PEG2 is 2-(2-(2-aminoethoxy)ethoxyamide linker, QSY7 is a non-fluorescent quenching dye (Thermo-Fisher catalog #Q10193). The assay was performed by pre-dispensing compounds into 384 well Proxiplates™ (PE 6008289). Human MALT-1 (6 nM) was prepared using the assay buffer (25 mM HEPES pH 7.5, 1 mM ethylenediaminetetraacetic acid, 0.8 M sodium citrate, 0.005% Bovine serum albumin (BSA), 2 mM dithiothreitol (DTT)) and added to the compound plates. The plates were incubated 40 minutes at room temperature. The reaction was carried out by adding the substrate (2 μM) to the plates and incubating for 60 minutes at room temperature. A fluorescence readout was then measured using a PE EnVision® reader (Ex.535/Em.590). […] EC50 is defined as the half maximal effective concentration of compound to inhibit MALT-1 protease activity.

Sequence of human MALT-1 protein (Q9UDY8 whole entry): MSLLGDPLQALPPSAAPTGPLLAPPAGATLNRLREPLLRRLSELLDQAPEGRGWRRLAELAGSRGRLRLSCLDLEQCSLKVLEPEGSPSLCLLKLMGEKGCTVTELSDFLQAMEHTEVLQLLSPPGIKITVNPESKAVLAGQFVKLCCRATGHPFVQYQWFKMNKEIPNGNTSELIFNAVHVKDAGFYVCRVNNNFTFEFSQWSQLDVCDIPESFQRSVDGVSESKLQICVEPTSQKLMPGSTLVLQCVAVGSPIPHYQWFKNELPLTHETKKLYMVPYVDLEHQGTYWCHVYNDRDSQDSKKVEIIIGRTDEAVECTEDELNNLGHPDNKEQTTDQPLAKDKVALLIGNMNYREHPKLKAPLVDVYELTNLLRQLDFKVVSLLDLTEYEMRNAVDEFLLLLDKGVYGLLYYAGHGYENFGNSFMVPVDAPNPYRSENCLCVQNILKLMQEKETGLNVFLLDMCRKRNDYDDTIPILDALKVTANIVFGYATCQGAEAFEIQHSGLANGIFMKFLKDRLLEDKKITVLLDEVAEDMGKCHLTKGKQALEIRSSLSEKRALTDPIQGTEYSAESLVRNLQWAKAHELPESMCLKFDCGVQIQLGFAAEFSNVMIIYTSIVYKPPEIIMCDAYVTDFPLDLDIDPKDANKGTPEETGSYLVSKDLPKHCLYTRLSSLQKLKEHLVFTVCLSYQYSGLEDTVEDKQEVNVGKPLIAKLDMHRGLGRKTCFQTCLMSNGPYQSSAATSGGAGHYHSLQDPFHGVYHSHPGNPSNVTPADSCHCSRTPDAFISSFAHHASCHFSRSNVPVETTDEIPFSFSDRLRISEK

Structure (SMILES)	CYP3A4 % of positive control (%) (CYP 3A4 mRNA)	fold induction at 1 day, 10 µM (CYP3A4 mRNA)	EC50 (OCI-LY3 IL6) [nM]	EC50 (human MALT-1 protein) [nM]
CO[C@H](c1c(Nc2ccc([C@H](N(C)C(=O)C3CCN(C(=O)CO)CC3)C(F)(F)F)cc2)cnc2sc(C)nc12)C(F)F [Example 21, N-{(1S) -1-[4-({7-[(1R)-2,2-difluoro-1-methoxyethyl]-2-methyl[1,3]thiazolo[5,4-b]pyridin-6-yl}amino)phenyl]-2,2,2-trifluoroethyl}-1-(hydroxyacetyl)-N-methylpiperidine-4-carboxamide]	(5.55) %	1.29	670	141
CO[C@@H](C)c1c(Nc2ccc([C@H](N(C)C(=O)C3CCN(C(=O)CCO)CC3)C(F)(F)F)cc2)cnc2sc(C)nc12 [Example 22, 1-(3-hydroxypropanoyl)-N-methyl-N-{(1S)-2,2,2-trifluoro-1-[4-({7-[(1S)-1-methoxyethyl]-2-methyl[1,3]thiazolo[5,4-b]pyridin-6-yl}amino)phenyl]ethyl}piperidine-4-carboxamide]	(1.16) %	1.09	380	228
CO[C@@H](C)c1c(Nc2ccc([C@H](N(C)C(=O)C3CCN(C(=O)C(C)(C)O)CC3)C(F)(F)F)cc2)cnc2sc(C)nc12 [Example 23, 1-(2-hydroxy-2-methylpropanoyl)-N-methyl-N-{(1S)-2,2,2-trifluoro-1-[4-({7-[(1S)-1-methoxyethyl]-2-methyl[1,3]thiazolo[5,4-b]pyridin-6-yl}amino)phenyl]ethyl}piperidine-4-carboxamide]	(−4.35) %	0.677	210	139
CO[C@@H](C)c1c(Nc2ccc([C@H](N(C)C(=O)C3CCN(C(=O)[C@@H](C)O)CC3)C(F)(F)F)cc2)cnc2sc(C)nc12 [Example 25, 1-[(2R)-2-hydroxypropanoyl]-N-methyl-N-{(1S)-2,2,2-trifluoro-1-[4-({7-[(1S)-1-methoxyethyl]-2-methyl[1,3]thiazolo [5,4-b]pyridin-6-yl}amino)phenyl]ethyl}piperidine-4-c arboxamide]	(2.45) %	1.16	250	67
CO[C@@H](C)c1c(Nc2ccc([C@H](N(C)C(=O)C3CCN(C(=O)[C@H](C)O)CC3)C(F)(F)F)cc2)cnc2sc(C)nc12 [Example 26, 1-[(2S)-2-hydroxypropanoyl]-N-methyl-N-{(1S)-2,2,2-trifluoro-1-[4-({7-[(1S)-1-methoxyethyl]-2-methyl[1,3]thiazolo [5,4-b]pyridin-6-yl}amino)phenyl]ethyl}piperidine-4-c arboxamide]	(2.57) %	1.17	1150	393
CO[C@@H](C)c1c(Nc2ccc([C@@H](C(F)F)N(C)C(=O)C3CCN(C(=O)CO)CC3)cc2)cnc2sc(C)nc12 [Example 28, N-{(1S)-2,2-difluoro-1-[4-({7-[(1S)-1-methoxyethyl]-2-methyl[1,3]thiazolo[5,4-b]pyridin-6-yl}amino)phenyl]ethyl}-1-(hydroxyacetyl)-N-methylpiperidine-4-carboxamide]	(15.1) %	2.24	420	138
CO[C@@H](C)c1c(Nc2ccc([C@@H](C(F)F)N(C)C(=O)C3CCN(C(C)=O)CC3)cc2)cnc2sc(C)nc12 [Example 29, 1-acetyl-N-{(1S)-2,2-difluoro-1-[4-({7-[(1S)-1-methoxyethyl]-2-methyl[1,3]thiazolo[5,4-b]pyridin-6-yl}amino)phenyl]ethyl}-N-methylpiperidine-4-carboxamide]	(27.8) %	3.29	300	232

Next, values leading:

CYP3A4 % of positive control (%) (CYP 3A4 mRNA)	fold induction at 1 day, 10 µM (CYP3A4 mRNA)	EC50 (OCI-LY3 IL6) [nM]	EC50 (human MALT-1 protein) [nM]	Structure (SMILES)
(7.62) %	1.49	12200	979	CO[C@@H](C)c1c(Nc2ccc([C@H](N(C)C(=O)C3CCN(C(=O)C(O)CO)CC3)C(F)(F)F)cc2)cnc2sc(C)nc12 (stereo partly drawn) [Example 24, 1-(2,3-dihydroxypropanoyl)-N-methyl-N-{(1S)-2,2,2-trifluoro-1-[4-({7-[(1S)-1-methoxyethyl]-2-methyl[1,3]thiazolo[5,4-b]pyridin-6-yl}amino)phenyl]ethyl}piperidine-4-carboxamide]
(7.55) %	1.47	410	70	CO[C@@H](C)c1c(Nc2ccc([C@H](N(C)C(=O)C3CCN(C(=O)[C@H](O)CO)CC3)C(F)(F)F)cc2)cnc2sc(C)nc12 [Example 27, 1-[(2R)-2,3-dihydroxypropanoyl]-N-methyl-N-{(1S)-2,2,2-trifluoro-1-[4-({7-[(1 S)-1-methoxyethyl]-2-methyl[1,3]thiazolo [5,4-b]pyridin-6-yl}amino)phenyl]ethyl}piperidine-4-carboxamide]
(5) %	1.49	710	82	CO[C@@H](C)c1c(Nc2ccc([C@H](N(C)C(=O)C3CCN(C(=O)[C@@H](O)CO)CC3)C(F)(F)F)cc2)cnc2sc(C)nc12 [Example 30, 1-[(25)-2,3-dihydroxypropanoyl]-N-methyl-N-{(1S)-2,2,2-trifluoro-1-[4-({7-[(1S)-1-methoxyethyl]-2-methyl[1,3]thiazolo[5,4-b]pyridin-6-yl}amino)phenyl]ethyl}piperidine-4-carboxamide]
